Reference: patent US20260265256A1 (IMPACT THERAPEUTICS (SHANGHAI), INC., priority 2023, published 2026)

Assays:
[1] = molecular target: recombinant poly(ADP-ribose) polymerase 2 (PARP2) (Homo sapiens, UniProt Q9UGN5); assay: PARP2 chemiluminescent assay; format: biochemical; conditions: PARP2 enzyme activity, chemiluminescence, 40 ng enzyme/well
Description: The solution of recombinant poly(ADP-ribose) polymerase 1 and 2 (PARP1 and PARP2) (40 ng enzyme/well) and the compounds to be tested were mixed, respectively. The solutions were added to a 96-well plate coated with histone mixture, incubated at room temperature for 1 h, then 50 μL 0.3 ng/mL Streptavidin-HRP was added to each well. The plates were incubated for 30 minutes at room temperature. Finally, the plates were treated with streptavidin-HRP followed by addition of the ELISA ECL substrate to produce chemiluminescence that can be measured using a chemiluminescence reader. Inhibition of the tested compound to PARP1/2 enzyme activity was calculated according to the following formula. [formula] IC50 value is obtained by fitting the s-shaped dose response curve equation by using XL Fit software.

MDA-MB-436 cells = assay: Growth inhibition assay against BRCA mutant human breast cancer MDA-MB-436 cell line (CCK-8, 7 days); format: cell-based; conditions: 168 h, MDA-MB-436, 7 days, read-out: IC50 (nM), proliferation of human breast cancer cells MDA-MB-436
Description: The cells were cultured in complete medium (DMEM medium+10% FBS+Insulin+glutathione). When the confluence reached about 80%, cells were digested and gently dispensed from the bottom of the dish with a 1 mL pipette. Cell suspension was collected and centrifuged at 500 rpm for 3 min. The supernatant was discarded, and the cell pellet were re-suspended in complete medium. The cells were seeded into a culture dish at an appropriate proportion, and then cultured in a 5% CO2 incubator at 37° C. The assay was carried out when the cells were in optimum condition and the confluence was reached 80%. Cells in the logarithmic growth phase were taken to centrifugate, and the culture supernatant was removed. The cells were resuspended in refresh complete medium and counted. The resuspended cells were seeded at 3000/well in a 96-well plate and incubated at 37° C., 5% CO2 incubator overnight. […] The solution was mixed by oscillation. 0.10% DMSO was used as the control.
The next day, the 96-well plate inoculated with cells was taken out from the incubator, and the culture supernatant was removed. Then fresh medium of 195 uL/well and 5 μL/well of 40× test compound solution as mentioned above were added into the 96 well plate, respectively. Finally, the plate was incubated for 7 days in a 37° C. 5% CO2 incubator. The medium containing compound was changed on the fourth day. After 7 days, 20 μL of CCK-8 was added to each well and shaken gently, then was cultured for 4 hours. The plate was shaken for 5 min after incubation, the absorbance values of 450 nm or 650 nm wavelengths were recorded respectively (OD=absorbance value of 450 nm−absorbance value of 650 nm) by using the multifunction readout instrument.
Data were analyzed by software GraphPad Prism 6.0. The inhibitory activity of compounds on cell proliferation was plotted using cell survival rate against the compound concentration as coordinates. Cell survival rate %=(ODcompound−ODbackground)/(ODDMSO−ODbackground)×100.
Table 2 summarizes the inhibitory effect data (IC50) of the compounds on the proliferation of human breast cancer cells MDA-MB-436.

Sequence of recombinant poly(ADP-ribose) polymerase 2 (PARP2) (Q9UGN5 whole entry): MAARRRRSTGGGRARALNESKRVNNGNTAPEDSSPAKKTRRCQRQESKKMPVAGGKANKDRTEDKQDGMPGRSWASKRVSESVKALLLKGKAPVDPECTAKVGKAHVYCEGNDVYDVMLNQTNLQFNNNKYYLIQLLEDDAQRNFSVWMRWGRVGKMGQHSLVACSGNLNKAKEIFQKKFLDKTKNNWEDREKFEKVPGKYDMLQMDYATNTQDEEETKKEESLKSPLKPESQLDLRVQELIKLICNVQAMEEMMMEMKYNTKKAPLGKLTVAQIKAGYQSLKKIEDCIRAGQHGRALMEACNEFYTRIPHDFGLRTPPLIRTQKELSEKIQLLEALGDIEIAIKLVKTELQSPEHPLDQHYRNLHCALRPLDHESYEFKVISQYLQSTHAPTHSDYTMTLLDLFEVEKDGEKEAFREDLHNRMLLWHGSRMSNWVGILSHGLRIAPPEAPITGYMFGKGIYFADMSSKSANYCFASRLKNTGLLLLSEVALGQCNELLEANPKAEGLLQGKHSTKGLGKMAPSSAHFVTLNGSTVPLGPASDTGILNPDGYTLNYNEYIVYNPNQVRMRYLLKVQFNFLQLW

SMILES | IC50 [1] | IC50 (MDA-MB-436 cells)
CNC(=O)c1ccc(-n2cc3c(n2)CN(Cc2ccc4c([nH]c(=O)c5c(C(F)(F)F)cnn54)c2F)C3)c(F)n1 [Example 26, 5-(5-((6-fluoro-4-oxo-3-(trifluoromethyl)-4,5-dihydropyrazolo[1,5-a]quinoxalin-7-yl)methyl)-5,6-dihydropyrrolo[3,4-c]pyrazol-2(4H)-yl)-6-fluoro-N-methylpicolinamide] | 64 nM | 13 nM
CCNC(=O)c1ccc(-n2cc3c(n2)CN(Cc2ccc4c([nH]c(=O)n5cc(C)nc45)c2F)C3)cn1 [Example 50, N-ethyl-5-(5-((7-fluoro-2-methyl-5-oxo-5,6-dihydroimidazo[1,2-c]quinazolin-8-yl)methyl)-5,6-dihydropyrrolo[3,4-c]pyrazol-2(4H)-yl)picolinamide] | 180 nM | 1.01 nM
CCNC(=O)c1ccc(-n2cc3c(n2)CN(Cc2ccc4c([nH]c(=O)c5occc54)c2F)C3)cn1 [Example 53, N-ethyl-5-(5-((6-fluoro-4-oxo-4,5-dihydrofuro[2,3-c]quinolin-7-yl)methyl)-5,6-dihydropyrrolo[3,4-c]pyrazol-2(4H)-yl)picolinamide] | 157 nM | 1.21 nM
CNC(=O)c1ccc(-n2cc3c(n2)CN(Cc2ccc4c([nH]c(=O)c5cc(F)nn54)c2F)C3)c(F)n1 [Example 56, 5-(5-((2,6-difluoro-4-oxo-4,5-dihydropyrazolo[1,5-a]quinoxalin-7-yl)methyl)-5,6-dihydropyrrolo[3,4-c]pyrazol-2(4H)-yl)-6-fluoro-N-methylpicolinamide] | 2760 nM | 4.66 nM
CNC(=O)c1ccc(-n2cc3c(c2)CN(Cc2ccc4c([nH]c(=O)c5c(F)cnn54)c2F)C3)c(F)n1 [Example 62, 5-(5-((3,6-difluoro-4-oxo-4,5-dihydropyrazolo[1,5-a]quinoxalin-7-yl)methyl)-5,6-dihydropyrrolo[3,4-c]pyrrol-2(4H)-yl)-6-fluoro-N-methylpicolinamide] | 278 nM | 0.44 nM
CNC(=O)c1ccc(-n2cc3c(c2)CN(Cc2ccc4c([nH]c(=O)c5c(C)cnn54)c2F)C3)c(F)n1 [Example 63, 6-fluoro-5-(5-((6-fluoro-3-methyl-4-oxo-4,5-dihydropyrazolo[1,5-a]quinoxalin-7-yl)methyl)-5,6-dihydropyrrolo[3,4-c]pyrrol-2(4H)-yl)-N-methylpicolinamide] | > 10000 nM | 0.85 nM

The next compounds have a lower IC50 [1] than those just listed; values first:

IC50 [1] | IC50 (MDA-MB-436 cells) | SMILES
61.1 nM | 1.6 nM | CNC(=O)c1ccc(-c2nc3c(o2)CN(Cc2ccc4c([nH]c(=O)c5c(F)cnn54)c2F)C3)cn1 [Example 41, 5-(5-((3,6-difluoro-4-oxo-4,5-dihydropyrazolo[1,5-a]quinoxalin-7-yl)methyl)-5,6-dihydro-4H-pyrrolo[3,4-d]oxazol-2-yl)-N-methylpicolinamide]
40 nM | 3.33 nM | CNC(=O)c1ccc(-c2nc3c([nH]2)CN(Cc2ccc4c([nH]c(=O)c5c(C)cnn54)c2F)C3)cn1 [Example 34, 5-(5-((6-fluoro-3-methyl-4-oxo-4,5-dihydropyrazolo[1,5-a]quinoxalin-7-yl)methyl)-1,4,5,6-tetrahydropyrrolo[3,4-d]imidazol-2-yl)-N-methylpicolinamide]
5.18 nM | 2.84 nM | CNC(=O)c1ccc(-c2nc3c([nH]2)CN(Cc2ccc4c([nH]c(=O)c5c(F)cnn54)c2F)C3)cn1 [Example 43, 5-(5-((3,6-difluoro-4-oxo-4,5-dihydropyrazolo[1,5-a]quinoxalin-7-yl)methyl)-1,4,5,6-tetrahydropyrrolo[3,4-d]imidazol-2-yl)-N-methylpicolinamide]
